In ChEMBL document CHEMBL5230122, “Natural products and other inhibitors of F1FO ATP synthase” (Eur J Med Chem, 2020):

Tests used:
Type in all cases: functional, cell-based
A549 [1] = test: Anticancer activity against human A549 cells assessed as reduction in cell viability incubated for 72 hrs by MTT assay; conditions: A549, 72 h
MCF7 [2] = test: Anticancer activity against human MCF7 cells assessed as reduction in cell viability incubated for 72 hrs by MTT assay; conditions: MCF7, 72 h
MDA-MB-231 = test: Anticancer activity against human MDA-MB-231 cells assessed as reduction in cell viability incubated for 72 hrs by MTT assay; conditions: MDA-MB-231, 72 h
HeLa = test: Anticancer activity against human HeLa cells assessed as reduction in cell viability incubated for 72 hrs by MTT assay
PaTu 8988t = test: Anticancer activity against human PaTu 8988t cells assessed as reduction in cell viability incubated for 72 hrs by MTT assay
HCT-116 = test: Antitumor activity against human HCT-116 cells assessed as reduction in cell viability incubated for 48 hrs by MTT assay; conditions: HCT-116, 48 h
Huh-7 = test: Antitumor activity against human Huh-7 cells assessed as reduction in cell viability incubated for 48 hrs by MTT assay; conditions: Huh-7, 48 h
MCF7 [3] = test: Antitumor activity against human MCF7 cells assessed as reduction in cell viability incubated for 48 hrs by MTT assay; conditions: MCF7, 48 h
A549 [4] = test: Antitumor activity against human A549 cells assessed as reduction in cell viability incubated for 48 hrs by MTT assay; conditions: A549, 48 h
[5] = Antitumor activity against mouse RIL-175 cells assessed as reduction in cell viability incubated for 48 hrs by MTT assay; conditions: RIL-175, 48 h
[6] = Anticancer activity against rat Ad12-3Y1-W5 cells assessed as reduction in cell viability incubated for 3 days by MTT assay; conditions: Ad12-3Y1-W5, 72 h
[7] = Anticancer activity against rat Ad12-3Y1-Z11 cells assessed as reduction in cell viability incubated for 3 days by MTT assay; conditions: Ad12-3Y1-Z11, 72 h
[8] = Anticancer activity against rat Ad12-3Y1-Z13 cells assessed as reduction in cell viability incubated for 3 days by MTT assay; conditions: Ad12-3Y1-Z13, 72 h
[9] = Anticancer activity against rat Ad12-3Y1-Z19 cells assessed as reduction in cell viability incubated for 3 days by MTT assay; conditions: Ad12-3Y1-Z19, 72 h
[10] = Anticancer activity against rat E1A-3Y1-1 cells assessed as reduction in cell viability incubated for 3 days by MTT assay; conditions: E1A-3Y1-1, 72 h
[11] = Anticancer activity against rat E1A-3Y1-2 cells assessed as reduction in cell viability incubated for 3 days by MTT assay; conditions: E1A-3Y1-2, 72 h
[12] = Anticancer activity against rat E1A-3Y1-3 cells assessed as reduction in cell viability incubated for 3 days by MTT assay; conditions: E1A-3Y1-3, 72 h
[13] = Anticancer activity against rat SR-3Y1-1 cells assessed as reduction in cell viability incubated for 3 days by MTT assay; conditions: SR-3Y1-1, 72 h
[14] = Anticancer activity against rat SR-3Y1-2 cells assessed as reduction in cell viability incubated for 3 days by MTT assay; conditions: SR-3Y1-2, 72 h
[15] = Anticancer activity against rat SR-3Y1-3 cells assessed as reduction in cell viability incubated for 3 days by MTT assay; conditions: SR-3Y1-3, 72 h
[16] = Anticancer activity against rat SV-3Y1-C66 cells assessed as reduction in cell viability incubated for 3 days by MTT assay; conditions: SV-3Y1-C66, 72 h
[17] = Anticancer activity against rat HR-3Y1-1 cells assessed as reduction in cell viability incubated for 3 days by MTT assay; conditions: HR-3Y1-1, 72 h
[18] = Anticancer activity against rat HR-3Y1-2 cells assessed as reduction in cell viability incubated for 3 days by MTT assay; conditions: HR-3Y1-2, 72 h
[19] = Anticancer activity against rat HR-3Y1-3 cells assessed as reduction in cell viability incubated for 3 days by MTT assay; conditions: HR-3Y1-3, 72 h
SK-OV-3 [20] = test: Anticancer activity against human SK-OV-3 cells assessed as reduction in cell viability incubated for 72 hrs by WST-8 assay; conditions: SK-OV-3, 72 h
[21] = Anticancer activity against human ACC-MESO-1 cells assessed as reduction in cell viability incubated for 72 hrs by WST-8 assay; conditions: ACC-MESO-1, 72 h
Jurkat [22] = test: Anticancer activity against human Jurkat cells assessed as reduction in cell viability incubated for 72 hrs by WST-8 assay
SK-OV-3 [23] = test: Cytotoxicity against human SK-OV-3 cells assessed as reduction in cell viability incubated for 72 hrs by WST-8 assay; conditions: SK-OV-3, 72 h
[24] = Cytotoxicity against human ACC-MESO-1 cells assessed as reduction in cell viability incubated for 72 hrs by WST-8 assay; conditions: ACC-MESO-1, 72 h
Jurkat [25] = test: Cytotoxicity against human Jurkat cells assessed as reduction in cell viability incubated for 72 hrs by WST-8 assay
HeLa S3 = test: Anticancer activity against human HeLa S3 cells assessed as reduction in cell viability incubated for 48 hrs by WST-8 assay; conditions: HeLa S3, 48 h
[26] = Anticancer activity against rat Ad12-3Y1-W5 cells assessed as reduction in cell viability incubated for 72 hrs by MTT assay; conditions: Ad12-3Y1-W5, 72 h
[27] = Anticancer activity against rat Ad12-3Y1-Z11 cells assessed as reduction in cell viability incubated for 72 hrs by MTT assay; conditions: Ad12-3Y1-Z11, 72 h
[28] = Anticancer activity against rat Ad12-3Y1-Z13 cells assessed as reduction in cell viability incubated for 72 hrs by MTT assay; conditions: Ad12-3Y1-Z13, 72 h
[29] = Anticancer activity against rat Ad12-3Y1-Z19 cells assessed as reduction in cell viability incubated for 72 hrs by MTT assay; conditions: Ad12-3Y1-Z19, 72 h
[30] = Anticancer activity against rat E1A-3Y1-1 cells assessed as reduction in cell viability incubated for 72 hrs by MTT assay; conditions: E1A-3Y1-1, 72 h
[31] = Anticancer activity against rat E1A-3Y1-2 cells assessed as reduction in cell viability incubated for 72 hrs by MTT assay; conditions: E1A-3Y1-2, 72 h
[32] = Anticancer activity against rat E1A-3Y1-3 cells assessed as reduction in cell viability incubated for 72 hrs by MTT assay; conditions: E1A-3Y1-3, 72 h

With `CCC(C)[C@H](NC(=S)[C@@H](NC(=O)C(C)O)C(C)C)C(=O)NCC(=O)N[C@@H](Cc1ccccc1O)C(=S)N[C@@H](C)C(=S)N[C@H](C(=O)N[C@H]1C(=O)N[C@@H]([C@@H](C)CC)C(=O)N[C@@H](C)C(=O)N[C@@H](C(C)C)C(=O)N[C@@H](Cc2cn(C)c[n+]2C)C(=O)N/C=C\SC1C)C(C)C` (stereo partly drawn) the IC50 (A549 [1]) was 48 nM, the IC50 (MCF7 [2]) was 59 nM and the IC50 (MDA-MB-231) was 72 nM. It also gave an IC50 (HeLa) of 50 nM and an IC50 (PaTu 8988t) of 65 nM.

With `CSCC[C@H](NC(=S)[C@@H](NC(=O)C(C)=O)C(C)C)C(=S)N[C@@H](C)C(=O)N[C@@H](C)C(=S)N[C@@H](C)C(=S)N[C@@H](C)C(=O)N[C@H]1C(=O)N[C@@H](C(C)C)C(=O)N[C@@H](C)C(=O)N[C@@H](Cc2ccccc2)C(=O)N[C@@H](C(O)c2cn(C)c[n+]2C)C(=O)N/C=C\SC1C` (stereo partly drawn) the IC50 (HCT-116) was 176 nM, the IC50 (Huh-7) was 141 nM and the IC50 (MCF7 [3]) was 480 nM. For the same compound, the IC50 (A549 [4]) was 1160 nM and the IC50 [5] was 157 nM.

In the case of `CC[C@H](C)[C@@H]1NC(=O)[C@H](NC(=O)[C@H](C)NC(=S)[C@H](C)NC(=S)[C@H](C)NC(=S)[C@H](C)NC(=S)[C@H](CCSC)NC(=S)[C@@H](NC(=O)C(C)(O)CC(C)=O)C(C)C)CS/C=C\NC(=O)[C@H](C(O)c2cn(C)c[n+]2C)NC(=O)[C@H](CC(C)C)NC(=O)[C@H](C)NC1=O` (stereo partly drawn), the IC50 [6] is reported as 0.0039 µg/mL, the IC50 [7] is reported as 0.0039 µg/mL and the IC50 [8] is reported as 0.0039 µg/mL. It also gave an IC50 [9] of 0.0039 µg/mL, an IC50 [10] of 0.032 µg/mL and an IC50 [11] of 0.032 µg/mL. For the same compound, the IC50 [12] was 0.032 µg/mL, the IC50 [13] was 0.63 µg/mL and the IC50 [14] was 0.63 µg/mL. It also gave an IC50 [15] of 0.63 µg/mL, an IC50 [16] of 0.46 µg/mL and an IC50 [17] of 0.2 µg/mL. It also gave an IC50 [18] of 0.2 µg/mL, an IC50 [19] of 0.2 µg/mL and an IC50 (SK-OV-3 [20]) of 38000 nM. For the same compound, the IC50 [21] was 27800 nM and the IC50 (Jurkat [22]) was 12500 nM.

For `CC[C@H](C)[C@@H]1NC(=O)[C@H](NC(=O)[C@H](C)NC(=S)[C@H](C)NC(=S)[C@H](C)NC(=S)[C@H](C)NC(=S)[C@H](CCSC)NC(=S)[C@@H](NC(=O)C(C)O)C(C)C)CS/C=C\NC(=O)[C@H]([C@@H](O)c2cn(C)c[n+]2C)NC(=O)[C@H](CC(C)C)NC(=O)[C@H](C)NC1=O` (stereo partly drawn), the IC50 (SK-OV-3 [23]) was 10800 nM, the IC50 [24] was 14300 nM and the IC50 (Jurkat [25]) was 5400 nM.

With `CC[C@H](C)[C@@H]1NC(=O)[C@H](NC(=O)[C@H](C)NC(=S)[C@H](C)NC(=S)[C@H](C)NC(=S)[C@H](C)NC(=S)[C@H](CCSC)NC(=S)[C@@H](NC(=O)C(C)=O)C(C)C)CS/C=C\NC(=O)[C@H](C(O)c2cn(C)c[n+]2C)NC(=O)[C@H](CC(C)C)NC(=O)[C@H](C)NC1=O` (stereo partly drawn) the IC50 (HeLa S3) was 360 nM, the IC50 [26] was 16 nM and the IC50 [27] was 16 nM. The IC50 [28] was 16 nM, the IC50 [29] was 16 nM and the IC50 [30] was 21 nM. For the same compound, the IC50 [31] was 21 nM and the IC50 [32] was 21 nM.
